Data as given in article PMC12541587 (Acta Pharmaceutica Sinica. B, 2025).
Values joined by “and” are separate entries in the source; they are usually repeats but may differ in a detail not shown here. Identical values can stand only once. Like-named read-outs stand apart in the source and are kept apart here.

Columns and labels:
σ1R [1] = target: σ1R (Rattus norvegicus, UniProt Q9R0C9); test: biochemical; assay type: binding; conditions: for inhibition at 10 µM: read-out: σ1R Inhibition; for inhibition at 1 µM: read-out: σ1R inhibitory rate at 1 μmol/L
Chain of σ1R (Rattus norvegicus, UniProt Q9R0C9) (Q9R0C9 whole entry): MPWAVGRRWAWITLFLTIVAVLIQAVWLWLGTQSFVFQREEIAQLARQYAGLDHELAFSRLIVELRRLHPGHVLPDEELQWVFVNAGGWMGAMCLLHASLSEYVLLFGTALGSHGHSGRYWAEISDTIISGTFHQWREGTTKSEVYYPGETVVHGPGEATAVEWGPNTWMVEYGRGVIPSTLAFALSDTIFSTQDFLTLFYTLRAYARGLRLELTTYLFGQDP

σ2R = target: T1, σ2R (Rattus norvegicus, UniProt Q5U3Y7); test: σ2R radioligand binding assay
T1 sequence (Q5U3Y7 1-176): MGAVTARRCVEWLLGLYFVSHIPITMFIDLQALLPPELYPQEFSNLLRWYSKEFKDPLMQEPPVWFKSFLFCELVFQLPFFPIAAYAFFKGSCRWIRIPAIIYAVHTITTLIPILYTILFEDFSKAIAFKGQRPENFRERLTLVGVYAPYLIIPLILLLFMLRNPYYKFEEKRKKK

σ1R [2] = assay type: binding, rat; conditions: Ki without DPH / Ki with DPH 250 μmol/L
CYP1A2 = target: T2, CYP1A2 (Homo sapiens, UniProt P05177); test: in vitro
T2 sequence (P05177 1-516): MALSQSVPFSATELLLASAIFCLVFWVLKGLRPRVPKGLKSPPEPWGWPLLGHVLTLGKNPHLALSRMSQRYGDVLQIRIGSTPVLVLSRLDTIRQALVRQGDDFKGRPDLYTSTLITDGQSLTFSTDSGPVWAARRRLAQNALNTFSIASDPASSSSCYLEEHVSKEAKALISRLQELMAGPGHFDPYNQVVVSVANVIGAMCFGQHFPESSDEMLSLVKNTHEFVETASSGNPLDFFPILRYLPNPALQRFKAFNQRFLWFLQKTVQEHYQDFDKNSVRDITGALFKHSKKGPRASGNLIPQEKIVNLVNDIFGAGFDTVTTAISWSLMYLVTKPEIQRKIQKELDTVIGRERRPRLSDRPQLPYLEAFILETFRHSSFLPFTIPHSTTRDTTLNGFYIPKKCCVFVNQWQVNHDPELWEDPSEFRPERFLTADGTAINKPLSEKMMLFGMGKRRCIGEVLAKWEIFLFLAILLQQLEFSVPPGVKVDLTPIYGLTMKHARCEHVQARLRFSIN

CYP2C19 = CYP2C19 (Homo sapiens, UniProt P33261); test: CYP450 inhibition: CYP2C19; conditions: probe S-mephenytoin (35 μmol/L)
Chain of CYP2C19 (P33261 whole entry): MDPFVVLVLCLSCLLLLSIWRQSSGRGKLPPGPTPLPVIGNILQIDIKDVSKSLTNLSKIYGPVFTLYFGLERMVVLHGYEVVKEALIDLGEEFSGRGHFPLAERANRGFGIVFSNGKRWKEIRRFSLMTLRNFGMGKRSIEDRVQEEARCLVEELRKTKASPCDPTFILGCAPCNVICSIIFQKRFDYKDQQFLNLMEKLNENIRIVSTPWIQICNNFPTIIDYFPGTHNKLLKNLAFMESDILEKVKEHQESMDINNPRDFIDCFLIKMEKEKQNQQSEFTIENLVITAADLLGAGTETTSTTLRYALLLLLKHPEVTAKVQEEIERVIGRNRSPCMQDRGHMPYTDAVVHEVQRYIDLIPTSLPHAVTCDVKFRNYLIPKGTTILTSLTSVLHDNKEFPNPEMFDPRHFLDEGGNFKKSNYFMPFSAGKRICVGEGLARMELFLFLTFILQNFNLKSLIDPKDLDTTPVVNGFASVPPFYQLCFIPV

σ1R-LgBiT and BiP-SmBiT = σ1R-LgBiT and BiP-SmBiT (Homo sapiens, UniProt Q99720); test: NanoBiT σ1R-BiP heterodimerization assay; assay type: cell-based; conditions: 10 μmol/L
Chain of σ1R-LgBiT and BiP-SmBiT (Q99720 whole entry): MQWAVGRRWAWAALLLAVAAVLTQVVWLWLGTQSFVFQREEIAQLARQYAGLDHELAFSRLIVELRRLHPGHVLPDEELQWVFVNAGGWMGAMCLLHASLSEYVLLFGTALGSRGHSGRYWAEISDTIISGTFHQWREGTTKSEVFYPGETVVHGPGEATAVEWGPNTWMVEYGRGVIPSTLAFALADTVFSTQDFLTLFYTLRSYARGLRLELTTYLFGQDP

D2/D3 receptor = conditions: healthy volunteers and Huntington disease patients; cited from earlier work
σ1R [3] = conditions: read-out: σ1R Ki (clinical σ1R agonists); cited from earlier work
σ1R [4] = conditions: healthy volunteers and Huntington disease patients; cited from earlier work
dopamine D3 = conditions: read-out: dopamine D3 Ki; cited from earlier work
catalepsy = test: Catalepsy bar test; assay type: in vivo, mice

COc1ccc(/C(C)=N/OCCCN2CCCCC2)cc1 [15l]
Ki (σ1R [1]): 39.4 ± 3.4 nM
inhibition at 10 µM (σ1R [1]): 93.2%

FC(F)(F)c1ccc2c(c1)OCC/C2=N\OCCCN1CCCCC1 [15o]
Ki (σ1R [1]): 76.2 ± 2.92 nM
inhibition at 10 µM (σ1R [1]): 99.3%

C/C(=N\OCCN1CCOCC1)c1ccccc1 [16p]
inhibition at 10 µM (σ1R [1]): 74.4%
inhibition at 1 µM (σ1R [1]): -8.25%

COc1ccc(/C(C)=N/OCCN2CCOCC2)cc1 [16q]
inhibition at 10 µM (σ1R [1]): 93.2%
inhibition at 1 µM (σ1R [1]): 37.8%

C/C(=N\OCCN1CCOCC1)c1ccc(Br)cc1 [16r]
inhibition at 10 µM (σ1R [1]): 106%
inhibition at 1 µM (σ1R [1]): 55.4%

C/C(=N\OCCN1CCOCC1)c1ccc(C)cc1 [16s]
inhibition at 10 µM (σ1R [1]): 66.2%

CC(C)=CCN1CC[C@]2(C)c3cc(O)ccc3C[C@H]1[C@H]2C [(+)-Pentazocine]
Ki (σ2R): 673 ± 27.5 nM
inhibition at 10 µM (σ1R [1]): 99%

CN(C)CCN(C)CCc1ccc(Cl)c(Cl)c1 [BD1047]
Ratios Ki/(Ki + phenytoin) (σ1R [2]): 0.63 ± 0.20
Ki (σ1R [1]; read-out: σ1R Ki, mean ± SEM, n = 3): 0.87 ± 0.15 nM

COCCCC/C(=N\OCCN)c1ccc(C(F)(F)F)cc1 [Fluvoxamine]
inhibition at 10 μmol/L (CYP1A2): 95.7%
inhibition at 10 µM (σ1R [1]): 81.8%
inhibition at 10 μmol/L (CYP2C19): 95%

O=C(OCCN1CCOCC1)C1(c2ccccc2)CCCCC1 [PRE084]
σ1R-LgBiT/BiP-SmBiT interaction, 10 min treatment (σ1R-LgBiT and BiP-SmBiT): decreased this interaction
Ki (σ1R [1]; read-out: σ1R Ki): 23.1 ± 3.17 nM

CCCN1CCC(c2cccc(S(C)(=O)=O)c2)CC1 [Pridopidine]
D2/D3 receptor occupancy (PET) (D2/D3 receptor): ~3%
Ki (σ1R [3]): 57 nM
σ1R occupancy (PET) (σ1R [4]): ~90%
Ki (dopamine D3): 1630 nM

C=CCN1CCC2(C)c3cc(O)ccc3CC1C2C (stereo not shown) [SKF10047]
Ratios Ki/(Ki + phenytoin) (σ1R [2]): 7.10 and 7.10 ± 0.74
Ki (σ1R [1]): 292 ± 6.18 nM

Cc1nc2n(c(=O)c1CCN1CCC(c3noc4cc(F)ccc34)CC1)CCCC2 [risperidone]
mean catalepsy duration at peak response (catalepsy; 3 mg/kg risperidone, 60 min post-administration): 49.57 min
cataleptic response (catalepsy; oral, 15d 10 to 45 mg/kg, risperidone 3 mg/kg): catalepsy induced by 3 mg/kg risperidone was observed
